# Read-outs that look alike come from different tables or passages of the source.
# How the values were obtained:
# [1] = test system: thrombin time of human platelet-poor plasma; assay: Anticoagulant activity: thrombin time in human plasma; type: biochemical; conditions: for Man CTT2 (concentration which multiplies the thrombin time by 2): human plasma, 2 minutes at 37° C.
# Procedure: (§1) In the presence of a standard quantity of thrombin, a normal plasma coagulates in a defined and constant time, termed the thrombin time (TT). Any prolongation of this time reflects an abnormality of fibrin formation (coagulation).
# (§2) Sprague-Dawley rats are anesthetized with pentobarbital sodium (60 mg/kg i.p.), the carotid artery is catheterized and blood samples are taken into trisodium citrate solution (0.109M). A platelet-poor plasma is obtained by centrifugation of the blood samples (3000 g, 15 minutes). Samples of venous blood are also taken from humans at the bend of the arm. Anticoagulation of the samples and preparation of platelet-poor plasma are identical to those carried out with rat blood.
# (§3) The thrombin time is obtained with Prest thrombin reagent and determined automatically using a coagulometer.
# (§4) The antagonist or the solvent (10 μl) is added to the plasma (90 μl) and then incubated for 2 minutes at 37° C. 100 µl of thrombin are added as the chronometer is started.
# (§5) Under these conditions, the TT values obtained in the control plasma are of the order of 30 seconds in rats and 20 seconds in humans. The activity of an antagonist is evaluated by its capacity to prolong this thrombin time relative to the control.
# (§6) Under these conditions, the compounds of the invention permit a prolongation of the thrombin time of 50-fold and more. The effect of the inhibitors is measured, and the concentration which multiplies the thrombin time by 2 (CTT2) is determined.
# human thrombin = target: T1, human thrombin (Homo sapiens, UniProt P00734); assay: Inhibition of human thrombin (fibrinogen or S2238 substrate); type: biochemical; conditions: for IC50: 20° C.; for selectivity with respect to the serine proteases of coagulation and of fibrinolysis compared with DUP 714: thrombin versus other serine proteases; for potency on human thrombin compared with DUP 714: with respect to human fibrinogen
# T1 construct: human thrombin (Sigma, specific activity 3230 NIHU/mg); purchased Sigma
# Procedure: To evaluate in vitro the inhibitory activity of the boro-arginine products with respect to human thrombin (Sigma, specific activity 3230 NIHU/mg), purified human fibrinogen ([…], Stago) (Fg) or the chromogenic substrate H-D-Phe-Pip-Arg-pNa ([…], S2238, Kabi) was added to a given quantity of thrombin (0.7 or 2 nM) incubated beforehand with or without the inhibitor under test (20° C., 10 minutes).
# (§7) Inhibitors, enzymes and substrates are diluted in the same buffer ([…] buffer, pH 7.4, containing 0.12M sodium chloride and 0.05% of bovine serum albumin), and then distributed in a polystyrene microplate in a volume of […].
# (§8) The fibrin formed by thrombin or by the para-nitroaniline liberated by the action of the serine protease is measured spectrophotometrically at 405 nm after 15 to 30 minutes of reaction at 20° C.
# purified human plasmin = target: T2, purified human plasmin (Homo sapiens, UniProt P00747); assay: Inhibition of plasmin; type: biochemical; conditions: substrate S 2403
# T2 construct: purified human plasmin (2 nM, Stago); purchased Stago
# T2 sequence (P00747 581-810 limits assumed): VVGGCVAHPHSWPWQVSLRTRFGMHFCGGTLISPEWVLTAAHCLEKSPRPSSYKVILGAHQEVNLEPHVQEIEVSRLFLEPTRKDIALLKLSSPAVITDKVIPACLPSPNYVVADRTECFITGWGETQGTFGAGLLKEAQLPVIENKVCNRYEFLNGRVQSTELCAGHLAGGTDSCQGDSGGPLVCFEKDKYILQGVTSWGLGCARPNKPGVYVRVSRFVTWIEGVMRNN
# T2 sequence (P00747 97-580 limits assumed): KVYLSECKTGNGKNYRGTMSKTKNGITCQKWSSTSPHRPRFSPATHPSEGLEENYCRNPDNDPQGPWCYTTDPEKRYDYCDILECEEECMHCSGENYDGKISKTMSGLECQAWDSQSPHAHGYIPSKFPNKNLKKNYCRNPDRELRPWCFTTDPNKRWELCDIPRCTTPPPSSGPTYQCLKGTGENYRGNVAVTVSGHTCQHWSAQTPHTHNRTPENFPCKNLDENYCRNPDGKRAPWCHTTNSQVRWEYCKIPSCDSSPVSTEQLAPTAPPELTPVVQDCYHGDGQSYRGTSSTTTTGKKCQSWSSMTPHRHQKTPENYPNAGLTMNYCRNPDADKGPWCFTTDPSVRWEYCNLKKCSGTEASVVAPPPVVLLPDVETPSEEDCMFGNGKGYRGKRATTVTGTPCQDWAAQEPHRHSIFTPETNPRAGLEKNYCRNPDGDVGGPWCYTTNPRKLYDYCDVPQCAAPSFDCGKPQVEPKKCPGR
# Procedure: (§9) To evaluate in vitro the selectivity of these products with respect to different serine proteases of fibrinolysis and of coagulation, the same protocol was applied to purified human plasmin (2 nM, Stago), to purified human activated protein C (2 nM, Stago), to purified human activated factor X (2 nM, Stago), to tissue plasminogen activator (2 nM, Calbiochem), to purified human urokinase (2 nM, Sigma) and to purified human plasma kallikrein (2 nM, Calbiochem), using different peptidyl para-nitroanilides as substrate: <Glu-Phe-Lys-pNA (0.50 mM, S 2403, Kabi) for plasmin, N-Cbo-Arg-Gly-Arg-pNA (0.38 mM, S 2765, Kabi) for factor Xa, <Glu-Pro-Arg-pNa (0.52 mM, S 2366, Kabi) for activated protein C, H-D-Pro-Phe-Arg-pNa (0.45 mM, S 2302, Kabi) for kallikrein, H-D-Ile-Pro-Arg-pNA (0.48 mM, S 2288, Kabi), <Glu-Gly-Arg-pNA (0.56 mM, S 2444, Kabi).
# as §7, §8
# [2] = target: T3, tissue plasminogen activator (Homo sapiens, UniProt P00750); assay: Inhibition of tissue plasminogen activator; type: biochemical; conditions: peptidyl para-nitroanilide substrate
# T3 construct: purchased Calbiochem
# T3 sequence (P00750 36-562): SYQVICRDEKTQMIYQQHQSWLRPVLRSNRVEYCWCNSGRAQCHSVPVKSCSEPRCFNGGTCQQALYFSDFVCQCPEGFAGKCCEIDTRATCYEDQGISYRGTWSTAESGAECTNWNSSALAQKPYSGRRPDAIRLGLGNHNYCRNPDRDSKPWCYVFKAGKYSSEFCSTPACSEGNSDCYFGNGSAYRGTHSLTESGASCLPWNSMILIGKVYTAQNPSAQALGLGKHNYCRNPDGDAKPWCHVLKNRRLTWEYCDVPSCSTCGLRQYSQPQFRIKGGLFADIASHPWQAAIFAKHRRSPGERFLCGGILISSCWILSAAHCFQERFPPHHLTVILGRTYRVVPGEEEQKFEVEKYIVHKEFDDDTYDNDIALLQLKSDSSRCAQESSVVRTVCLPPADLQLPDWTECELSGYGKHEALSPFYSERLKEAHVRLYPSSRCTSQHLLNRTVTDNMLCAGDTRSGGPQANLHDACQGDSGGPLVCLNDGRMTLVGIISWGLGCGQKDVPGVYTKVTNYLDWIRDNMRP
# Procedure: as §9, §7, §8
# purified human urokinase = target: T4, purified human urokinase (Homo sapiens, UniProt P00749); assay: Inhibition of urokinase; type: biochemical; conditions: peptidyl para-nitroanilide substrate
# T4 construct: purchased Sigma
# Procedure: as §9, §7, §8
# [3] = target: T5, purified human activated factor X (Homo sapiens, UniProt P00742); assay: Inhibition of activated factor X; type: biochemical; conditions: substrate S 2765
# T5 construct: purchased Stago
# T5 sequence (P00742 235-488 limits assumed): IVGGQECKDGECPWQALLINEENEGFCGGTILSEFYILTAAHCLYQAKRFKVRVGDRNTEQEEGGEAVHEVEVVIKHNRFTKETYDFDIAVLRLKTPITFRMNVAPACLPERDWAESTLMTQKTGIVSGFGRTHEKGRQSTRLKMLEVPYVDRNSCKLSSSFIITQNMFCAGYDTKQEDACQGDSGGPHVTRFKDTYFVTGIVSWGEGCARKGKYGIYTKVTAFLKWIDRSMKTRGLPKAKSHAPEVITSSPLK
# T5 sequence (P00742 41-179 limits assumed): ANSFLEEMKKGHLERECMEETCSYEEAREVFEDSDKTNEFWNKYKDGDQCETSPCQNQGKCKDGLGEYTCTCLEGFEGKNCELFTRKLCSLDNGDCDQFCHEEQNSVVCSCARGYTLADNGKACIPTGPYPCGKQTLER
# Procedure: as §9, §7, §8
# [4] = target: T6, purified human plasma kallikrein (Homo sapiens, UniProt P03952); assay: Inhibition of plasma kallikrein; type: biochemical; conditions: substrate S 2302; read-out: IC50 Kalli
# T6 construct: to purified human plasma kallikrein (2 nM, Calbiochem); purchased Calbiochem
# T6 sequence (P03952 391-638 limits assumed): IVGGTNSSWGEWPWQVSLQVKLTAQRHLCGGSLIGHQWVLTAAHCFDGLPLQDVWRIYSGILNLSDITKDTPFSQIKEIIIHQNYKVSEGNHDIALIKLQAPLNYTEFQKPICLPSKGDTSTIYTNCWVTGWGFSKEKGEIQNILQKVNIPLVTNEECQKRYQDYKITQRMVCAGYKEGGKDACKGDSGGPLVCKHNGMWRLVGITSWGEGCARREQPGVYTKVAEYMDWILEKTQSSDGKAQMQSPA
# T6 sequence (P03952 20-390 limits assumed): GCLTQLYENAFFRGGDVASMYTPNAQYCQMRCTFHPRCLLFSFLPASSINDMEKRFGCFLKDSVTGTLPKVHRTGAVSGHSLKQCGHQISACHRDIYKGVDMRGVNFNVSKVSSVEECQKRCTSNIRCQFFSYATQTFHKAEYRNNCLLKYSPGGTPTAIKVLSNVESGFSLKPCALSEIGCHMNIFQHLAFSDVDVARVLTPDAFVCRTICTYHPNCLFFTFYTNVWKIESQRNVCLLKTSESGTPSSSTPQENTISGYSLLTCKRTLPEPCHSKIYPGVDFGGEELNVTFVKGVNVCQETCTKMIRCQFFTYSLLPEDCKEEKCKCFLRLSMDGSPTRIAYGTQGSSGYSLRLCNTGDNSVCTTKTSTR
# Procedure: as §9, §7, §8
# [5] = target: T7, purified human activated protein C (Homo sapiens, UniProt P04070); assay: Inhibition of activated protein C; type: biochemical; conditions: substrate S 2366
# T7 construct: purchased Stago
# T7 sequence (P04070 212-461 limits assumed): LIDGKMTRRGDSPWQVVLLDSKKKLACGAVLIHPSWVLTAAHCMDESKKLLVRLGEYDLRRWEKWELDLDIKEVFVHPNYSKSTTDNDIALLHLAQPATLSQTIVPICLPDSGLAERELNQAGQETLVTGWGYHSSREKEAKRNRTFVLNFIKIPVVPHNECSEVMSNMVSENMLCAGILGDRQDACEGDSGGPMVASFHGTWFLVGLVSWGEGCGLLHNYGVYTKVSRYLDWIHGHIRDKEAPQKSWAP
# T7 sequence (P04070 43-197 limits assumed): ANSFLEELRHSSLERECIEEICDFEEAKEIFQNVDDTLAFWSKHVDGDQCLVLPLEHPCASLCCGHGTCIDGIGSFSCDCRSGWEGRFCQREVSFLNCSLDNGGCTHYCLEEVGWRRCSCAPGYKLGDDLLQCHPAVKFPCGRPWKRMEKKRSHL
# Procedure: as §9, §7, §8
# OFA rats [6] = assay: Anticoagulant activity ex vivo, intravenous administration, activated cephalin time; type: in vivo, rat; conditions: 0.5 mg/kg i.v.
# Procedure: OFA rats, fasted or otherwise, are anesthetized with pentobarbital (60 mg/kg i.p.). The carotid artery and the jugular vein are exposed and catheterized. The catheters are flushed with citrated (1/40) physiological solution. After installation of the catheters, a sample of 1.5 cm^3 of arterial blood is withdrawn into 0.109M citrate (1/9).
# 30 minutes later, the test product is administered i.v. in a volume of 1 ml.
# Arterial blood samples (1.5 ml) are then withdrawn at 1 minute 30 sec and 5, 15, 30 and 60 minutes.
# As each sample is withdrawn, 1.5 ml of citrated physiological solution are reinjected into the animal via the carotid.
# The blood tubes are centrifuged for 15 minutes at 3000 g (preparation of plasma). 100 μl of plasma are incubated with 100 gl of activated cephalin. The time of onset of the coagulation phenomenon is measured after adding 100 μl of calcium.
# The compounds of the invention, tested at a dose of 0.5 mg/kg, increase the activated cephalin time (ACT) in a dose-dependent manner. […] The increase in ACT noted with the compounds of the invention is still significant 60 minutes after their administration. The results are reproduced in the following table, and show the factors by which the coagulation time is increased.
# dogs [7] = assay: Anticoagulant activity p.o. in dogs, thrombin time; type: in vivo, dog; conditions: 5 mg/kg orally
# Procedure: (§10) The products were administered orally to dogs.2 hours and 4 hours after the treatment, and blood was withdrawn via the intravenous route. The plasma is prepared, platelets counted and the thrombin time test is carried out.
# dogs [8] = assay: Thrombopenia p.o. in dogs, platelet count; type: in vivo, dog; conditions: 5 mg/kg orally
# Procedure: as §10
# OFA rats [9] = assay: Anticoagulant activity ex vivo, intravenous administration, activated cephalin time; type: in vivo, rat; conditions: 0.5 mg/kg i.v., 15.5 min
# [10] = test system: thrombin time of rat platelet-poor plasma; assay: Anticoagulant activity: thrombin time in rat plasma; type: biochemical; conditions: for Rat CTT2 (concentration which multiplies the thrombin time by 2): rat plasma, 2 minutes at 37° C.
# Procedure: as §1, §2, §3, §4, §5, §6
# OFA rats [11] = assay: Anticoagulant activity ex vivo, oral administration (conscious rats), thrombin time; type: in vivo, rat; conditions: 10 mg/kg orally
# Procedure: Fasted OFA rats are anesthetized with ether. The cordal artery is exposed and catheterized. The catheter is flushed with citrated (1/40) physiological solution. After installation of the catheter, the animal is placed in a restraining cage and 1.5 cm^3 of arterial blood are withdrawn into 0.109M citrate (1/9).
# 1 hour after the animal has awoken, the test products are administered orally at a single dose of 10 mg/kg.
# Arterial blood samples (1.5 ml) are then withdrawn at 30 minutes, 60 minutes and 2 hours.
# As each sample is withdrawn, 1.5 ml of physio-logical solution are reinjected into the animals.
# The blood tubes are centrifuged for 15 minutes at 3000 g for preparation of the plasma. The time of onset of the coagulation phenomenon is measured after adding Prest thrombin.
# The results are reproduced in the following table, and show the factors by which the thrombin time is increased.
# [12] = chromogenic substrate S2238, read-out: IC50 Thrombin S2238
# [13] = substrate purified human fibrinogen, read-out: IC50 Thrombin Fg
SMILES,Man CTT2 (concentration which multiplies the thrombin time by 2) [1],IC50 (human thrombin; [12]),IC50 (human thrombin; [13]),selectivity with respect to the serine proteases of coagulation and of fibrinolysis compared with DUP 714 (human thrombin),IC50 (purified human plasmin),IC50 [2],IC50 (purified human urokinase),IC50 [3],IC50 [4],IC50 [5],factor by which the coagulation time (ACT) is increased (OFA rats [6]; 5 min),factor by which the coagulation time (ACT) is increased (OFA rats [6]; 15 min),factor by which the coagulation time (ACT) is increased (OFA rats [6]; 30 min),factor by which the coagulation time (ACT) is increased (OFA rats [6]; 60 min),Increase factor TT (dogs [7]; 2 hr),Increase factor TT (dogs [7]; 4 hr),Change in platelet count (% of control) (dogs [8]; 2 hr),Change in platelet count (% of control) (dogs [8]; 4 hr),factor by which the coagulation time (ACT) is increased (OFA rats [9]),Rat CTT2 (concentration which multiplies the thrombin time by 2) [10],further results
"CC(=O)NC(Cc1ccccc1)C(=O)N(CC(=O)N[C@@H](CCCNC(=N)N)B(O)O)C1CCCC1.CC(=O)O (mixture of isomers) [Ex. 27, 1-(R)-{[Ac-(RS)Phe-(N-cyclopentyl)Gly]amino}-4-guanidinobutylboronic acid acetate]",0.20 µM,2.5 nM,0.79 nM,greater selectivity,735 nM,38 nM,3180 nM,1760 nM,104 nM,149 nM,2.3,1.7,1.5,1.3,11,3,-4%,-1%,5,,
"CC(=O)NC(Cc1ccccc1)C(=O)N1C(C(=O)NC(CCCNC(=N)N)B(O)O)CC2CCCCC21.CC(=O)O (mixture of isomers) [Ex. 3, 1-(R)-[(Ac-(RS)Phe-Phi)amino]-4-guanidinobutylboronic acid acetate]",0.07 µM,,,,,,,,,,4.7,3.6,2.6,2.0,,,,,7.3,0.23 µM,factor by which concentration for doubling the thrombin time is less than DUP 714 ([1]; humans): 2.5; factor by which the thrombin time is increased (OFA rats [11]; 0.5 hours): 7.7; factor by which the thrombin time is increased (OFA rats [11]; 1 hour): 7.1; factor by which the thrombin time is increased (OFA rats [11]; 2 hours): 5.6
"CC(=O)N[C@H](Cc1ccccc1)C(=O)N(CC(=O)N[C@@H](CCCNC(=N)N)B(O)O)C1CCC1.CC(=O)O [Ex. 25, 1-(R)-{[Ac-(R)Phe-(N-cyclobutyl)Gly]amino}-4-guanidinobutylboronic acid acetate]",,2 nM,0.45 nM,greater selectivity,818 nM,14 nM,1640 nM,356 nM,75 nM,211 nM,,,,,,,,,,,potency on human thrombin compared with DUP 714 (human thrombin): more potent inhibitors of human thrombin than the reference compound
"CC(=O)NC(Cc1ccccc1)C(=O)N1C2CCC(CC2)C1C(=O)NC(CCCNC(=N)N)B(O)O.CC(=O)O (mixture of isomers) [Ex. 23, 1-(R)-[(Ac-(RS)Phe-Abo)amino]-4-guanidinobutylboronic acid acetate]",0.11 µM,,,,,,,,,,,,,,,,,,,0.17 µM,concentration for doubling the thrombin time relative to DUP 714 ([10]; rats): one half
"CC(=O)N[C@H](Cc1ccccc1)C(=O)N(CC(=O)N[C@@H](CCCN=C(N)N)B(O)O)C1CCCC1.CC(=O)O [Ex. 28, 1-(R)-{[Ac-(R)Phe-(N-cyclopentyl)Gly]amino}-4-guanidinobutylboronic acid acetate]",0.19 µM,2 nM,0.46 nM,greater selectivity,445 nM,47 nM,1820 nM,225 nM,91 nM,82 nM,,,,,11,2,-4%,+1%,,,potency on human thrombin compared with DUP 714 (human thrombin): more potent inhibitors of human thrombin than the reference compound

# — patent US5444049A, “Peptide compounds derived from boronic acid” (Adir et Compagnie, priority 1993, dated 1995)
